From patent publication US20250268824A1, “METHODS FOR MAKING REDUCED PARTICLE SIZE COMPOUNDS” (TaP Pharmaceuticals AG, priority 2024, published 2025) come the findings set out here.

A short description of this data set: Miscibility of unprocessed prednisolone acetate with water. The format is physicochemical. Particulars: floats on the surface of water. How it is done: API Particle size reduction. The API, prednisolone acetate, of the present invention is destined for inclusion in ophthalmic formulation and characterized by a target PSD of: D10≤0.15 μM, D50≤0.75 μM, D90≤2.5 μM. […] Addition of surfactant (e.g. polysorbate) to aqueous solution was required to form slurries of prednisolone acetate suitable for use as vehicles in particle size reduction experiments that employed bead milling and high-pressure homogenization.
API Particle size reduction. The API, prednisolone acetate, of the present invention is destined for inclusion in ophthalmic formulation and in some embodiments characterized by a target PSD of: D10≤1.0 μM, D50≤2.2 μM, D90≤4.5 μM. […] Addition of surfactant (e.g. polysorbate) to aqueous solution was required to form slurries of prednisolone acetate suitable for use as vehicles in particle size reduction experiments that high-pressure homogenization.

For `CC(=O)OCC(=O)[C@@]1(O)CC[C@H]2[C@@H]3CCC4=CC(=O)C=C[C@]4(C)[C@H]3[C@@H](O)C[C@@]21C` [prednisolone acetate], the miscibility with water result was “immiscible with water”.
